Test results: ChEMBL document CHEMBL4393655, “Evaluation of synthetic substituted 1,2-dioxanes as novel agents against human leishmaniasis” (Eur J Med Chem, 2019)

What was measured:
Leishmania donovani [1] = assay: Antileishmanial activity against late log/stationary phase of promastigote stage of Leishmania donovani MHOM/NP/02/BPK282/0c14 assessed as parasite growth inhibition after 72 hrs by plate reader based Alamar blue assay; type: functional, organism-based
Leishmania donovani [2] = assay: Antileishmanial activity against promastigote stage of Leishmania donovani MHOM/ET/67/HU3 assessed as parasite growth inhibition after 3 days by MTT assay; type: functional, organism-based; conditions: MHOM/ET/67/HU3, 72 h
[3] = (§1) Cytotoxicity against African green monkey Vero cells after 72 hrs by plate reader based Alamar blue assay; type: cell-based; conditions: chlorocebus sabaeus, Vero cells
[4] = Selectivity index, ratio of CC50 for African green monkey Vero cells to IC50 for Leishmania donovani MHOM/NP/02/BPK282/0c14; type: toxicity; conditions: for selectivity ratio: Vero cells, read-out: Ratio CC50/IC50
Leishmania major = assay: Antileishmanial activity against late log/stationary phase of promastigote stage of Leishmania major MHOM/SU/73/5-ASKH assessed as parasite growth inhibition after 72 hrs by plate reader based Alamar blue assay; type: functional, organism-based
Leishmania donovani [5] = assay: Antileishmanial activity against amastigote stage of Leishmania donovani MHOM/NP/02/BPK282/0c14 infected in human THP1 cells assessed as parasite growth inhibition after 72 hrs by Giemsa staining-based light microscopic analysis; type: functional, organism-based; conditions: MHOM/NP/02/BPK282/0c14, THP-1, 72 h
Leishmania infantum [6] = assay: Antileishmanial activity against late log/stationary phase of promastigote stage of Leishmania infantum MHOM/TN/80/IPT1 assessed as parasite growth inhibition after 72 hrs by plate reader based Alamar blue assay; type: functional, organism-based; conditions: MHOM/TN/80/IPT1, 72 h
Leishmania tropica = assay: Antileishmanial activity against late log/stationary phase of promastigote stage of Leishmania tropica MHOM/SU/74/K27 assessed as parasite growth inhibition after 72 hrs by plate reader based Alamar blue assay; type: functional, organism-based; conditions: MHOM/SU/74/K27, 72 h
Leishmania infantum [7] = assay: Antileishmanial activity against promastigote stage of Leishmania infantum MHOM/PT/88/IMT151 as parasite growth inhibition after 48 hrs by MTT assay; type: functional, organism-based; conditions: MHOM/PT/88/IMT151, 48 h
Leishmania infantum [8] = assay: Antileishmanial activity against amastigote stage of Leishmania infantum MHOM/PT/88/IMT151 infected in human THP-1 cells assessed as parasite growth inhibition after 48 hrs by microscopic analysis; type: functional, organism-based; conditions: MHOM/PT/88/IMT151, THP-1, 48 h
Leishmania donovani [9] = assay: Antileishmanial activity against promastigote stage of Leishmania donovani NLB-065 assessed as parasite growth inhibition after 72 hrs by microscopic analysis; type: functional, organism-based; conditions: NLB-065, 72 h
Vero = assay: as §1; type: cell-based; conditions: chlorocebus sabaeus, vero, 72 h
Leishmania donovani [10] = assay: Antileishmanial activity against promastigote stage of Leishmania donovani MHOM/IN/83/AG83 assessed as inhibition of parasite viability after 48 hrs by MTS assay; type: functional, organism-based; conditions: MHOM/IN/83/AG83, 48 h
[11] = Solubility of the compound; type: physicochemical
Leishmania donovani [12] = assay: Antileishmanial activity against promastigote stage of Leishmania donovani assessed as parasite growth inhibition after 72 hrs by resazurin dye based assay; type: functional, organism-based
[13] = Leishmania donovani, MHOM/NP/02/BPK282/0c14, 72 h

Row | Compound | IC50 (Leishmania donovani [1]; [13]) [µM] | CC50 at 72 h [3] [µM] | selectivity ratio [4] | further results
1 | COC1(C)OOC(c2ccccc2)(c2ccccc2)CC1CO (centres undefined) | > 40 | – | – | –
2 | C[C@H]1[C@@H](O)O[C@@H]2O[C@@]3(C)CC[C@H]4[C@H](C)CC[C@@H]1[C@@]24OO3 [ARTENIMOL] | – | – | – | IC50 (Leishmania donovani [2]): 4.1 to 20.2 µM
3 | CCCCC1(CCCC)C[C@@H](CNCCCn2ccnc2)[C@@](CCCC)(OC)OO1 (racemic) | 6.2 | 32.5 | 5.2 | –
4 | CCCCC1(CCCC)C[C@@H](CO)[C@@](C)(OC)OO1 (racemic) | > 40 | – | – | –
5 | COC(=O)C1CC(c2ccccc2)(c2ccccc2)OOC1(C)OC (centres undefined) | > 40 | – | – | –
6 | CCCCC1(CCCC)C[C@@H](COCc2cn(CC(O)(Cn3cncn3)c3ccc(F)cc3F)nn2)[C@@](C)(OC)OO1 (mixture of isomers) | 16 | 195 | 12.2 | IC50 (Leishmania major): 38.4 µM; IC50 (Leishmania donovani [5]): 13 µM; IC50 (Leishmania infantum [6]): 12 µM; IC50 (Leishmania tropica): 38 µM
7 | NCC1CC[C@]2(CC1)OO[C@]1(O2)C2CC3CC(C2)CC1C3 (some centres undefined) | – | – | – | IC50 (Leishmania infantum [7]): 3.51 µM; IC50 (Leishmania infantum [8]): 108 µM
8 | CCN(CC)CCCCCCNc1cc(OC)cc2c(C)ccnc12 [SITAMAQUINE] | – | – | – | IC50 (Leishmania donovani [2]): 36.1 to 179 µM
9 | CO[C@]1(C)OOC2(CC[C@H]3C[C@@H]2C3(C)C)C[C@H]1CNCCCn1ccnc1 (mixture of isomers; form 1) | – | 300 | 18.3 | IC50 (Leishmania donovani [1]): 16.4 µM
10 | C[C@H]1[C@H](OC(=O)CCC(=O)O)O[C@@H]2O[C@@]3(C)CC[C@H]4[C@H](C)CC[C@@H]1[C@@]24OO3 [SODIUM ARESUNATE] | > 40 | – | – | IC50 (Leishmania donovani [9]): 12.1 µM
11 | CO[C@@]1(C)OOC(c2ccccc2)(c2ccccc2)C[C@H]1COCc1cn(CCC[P+](c2ccccc2)(c2ccccc2)c2ccccc2)nn1 (racemic) | 13.8 | 280 | 24.3 | IC50 (Leishmania major): 2.6 µM; IC50 (Leishmania donovani [5]): 16.5 µM; IC50 (Leishmania infantum [6]): 10 µM; IC50 (Leishmania tropica): 6 µM
12 | C[C@@H]1CC[C@H]2[C@@H](C)[C@](OO)(C(F)(F)F)O[C@@H]3O[C@@]4(C)C[C@@H]1[C@]32OO4 | – | – | – | IC50 (Leishmania donovani [2]): 2.5 to 12.5 µM
13 | CCCCC1(CCCC)C[C@@H](CNCCCn2ccnc2)[C@@](C)(OC)OO1 (racemic) | 7.5 | 74.5 | 13.5 | IC50 (Leishmania major): 11.8 µM; IC50 (Leishmania donovani [5]): 12.2 µM; IC50 (Leishmania infantum [6]): 3 µM; IC50 (Leishmania tropica): 8.9 µM
14 | CO[C@]1(C)OOC2(CC[C@H]3C[C@@H]2C3(C)C)C[C@H]1CNCCCn1ccnc1 (mixture of isomers; form 2) | – | – | – | CC50 (Vero): 276 µM; IC50 (Leishmania major): 25 µM; IC50 (Leishmania donovani [5]): 9.7 µM; Ratio CC50/IC50 ([4]; vero): 34.6; IC50 (Leishmania infantum [6]): 5 µM; IC50 (Leishmania donovani [1]): 8 µM; IC50 (Leishmania tropica): 24 µM
15 | CCCCC1(CCCC)C[C@@H](CO)[C@](C)(OC)OO1 (racemic) | > 40 | – | – | –
16 | CCCCC1(CCCC)C[C@@H](COCc2cn(CCC[P+](c3ccccc3)(c3ccccc3)c3ccccc3)nn2)[C@](C)(OC)OO1 (racemic) | 40 | 200 | 5 | –
17 | OC(Cn1cncn1)(Cn1cncn1)c1ccc(F)cc1F [FLUCONAZOLE] | > 40 | – | – | –
18 | C=CCO[C@@]1(C(F)(F)F)O[C@@H]2O[C@@]3(C)C[C@H]4[C@H](C)CC[C@@H](C1=C)[C@@]24OO3 | – | – | – | IC50 (Leishmania donovani [2]): 5.5 to 12.4 µM
19 | CCCCC1(CCCC)C[C@@H](CNCCCNc2ccnc3cc(Cl)ccc23)[C@@](C)(OC)OO1 (racemic) | 1.6 | 4 | 2.5 | –
20 | C=CCO[C@@]1(C(F)(F)F)O[C@@H]2O[C@@]3(C)C[C@H]4[C@H](C)CC[C@@H]([C@H]1C)[C@@]24OO3 | – | – | – | IC50 (Leishmania donovani [2]): 1.6 to 6.25 µM
21 | CCCCC1(CCCC)C[C@@H](CNCCCn2cncn2)[C@@](C)(OC)OO1 (racemic) | > 40 | – | – | –

Row | Compound | IC50 (Leishmania donovani [1]; [13]) [µM] | CC50 at 72 h [3] [µM] | selectivity ratio [4] | further results
22 | CO[C@@]1(C)OOC(C)(C)C[C@H]1COCc1cn(CCC[P+](c2ccccc2)(c2ccccc2)c2ccccc2)nn1 (racemic) | > 40 | – | – | –
23 | CCCCC1(CCCC)C[C@@H](COCc2cn(CCC[P+](c3ccccc3)(c3ccccc3)c3ccccc3)nn2)[C@@](C)(OC)OO1 (racemic) | 15.5 | 102 | 6.6 | –
24 | CCCCC1(CCCC)C[C@@H](C(=O)OC)[C@@](C)(OC)OO1 (racemic) | > 40 | – | – | –
25 | CO[C@@]1(C)OOC(C)(C)C[C@H]1CNCCCn1ccnc1 (racemic) | > 40 | – | – | –
26 | CO[C@@]1(C)OOC(c2ccccc2)(c2ccccc2)C[C@H]1CNCCCn1ccnc1 (racemic) | 7.5 | 50 | 6.7 | –
27 | CO[C@@]1(C)OOC(c2ccc(F)cc2)(c2ccc(F)cc2)C[C@H]1CNCCCn1ccnc1 (racemic) | 12 | 93.6 | 7.8 | –
28 | C[C@@H]1[C@H](O)[C@@H](C)/C=C/C=C/C=C/C=C/C=C/C=C/C=C/[C@H](O[C@@H]2O[C@H](C)[C@@H](O)[C@H](N)[C@@H]2O)C[C@@H]2O[C@](O)(C[C@@H](O)C[C@@H](O)[C@H](O)CC[C@@H](O)C[C@@H](O)CC(=O)O[C@H]1C)C[C@H](O)[C@H]2C(=O)O [AMPHOTERICIN B] | 0.3 | – | 667 | IC50 (Leishmania donovani [2]): 0.03 to 2.8 µM
29 | CCCCC1(CCCC)C[C@@H](C(=O)OC)[C@](C)(OC)OO1 (racemic) | > 40 | – | – | –
30 | C[C@@H]1CC[C@H]2[C@@H](C)C(=O)O[C@@H]3O[C@@]4(C)CC[C@@H]1[C@]32OO4 [ARTEMISININ] | > 40 | – | – | IC50 (Leishmania donovani [10]): 100 to 160 µM
31 | COc1ccc(N[C@@]2(C(F)(F)F)O[C@@H]3O[C@@]4(C)C[C@H]5[C@H](C)CC[C@@H]([C@H]2C)[C@@]35OO4)cc1 | – | – | – | IC50 (Leishmania donovani [2]): 0.38 to 1.5 µM
32 | CCCCC1(CCCC)C[C@@H](C(=O)OC)[C@@](C)(O)OO1 (racemic) | > 40 | – | – | –
33 | CCCC[C@]1(OC)OOC(c2ccccc2)(c2ccccc2)C[C@H]1CNCCCn1ccnc1 (racemic) | 4.2 | 9.5 | 2.3 | –
34 | CCCCC1(O)OOC(c2ccccc2)(c2ccccc2)CC1C(=O)OC (centres undefined) | – | – | – | solubility [11]: Insoluble
35 | NC[C@@H]1O[C@H](O[C@H]2[C@@H](O)[C@H](O[C@@H]3[C@@H](O)[C@H](N)C[C@H](N)[C@H]3O[C@H]3O[C@H](CO)[C@@H](O)[C@H](O)[C@H]3N)O[C@@H]2CO)[C@H](N)[C@@H](O)[C@@H]1O [PAROMOMYCIN] | – | – | – | IC50 (Leishmania donovani [12]): 19.7 to 28.1 µM
36 | CO[C@@]1(C)OOC2(CC[C@H]3C[C@@H]2C3(C)C)C[C@H]1CNCCCn1ccnc1 (mixture of isomers) | 16.3 | 274 | 16.8 | IC50 (Leishmania major): 15.5 µM; IC50 (Leishmania donovani [5]): 23.5 µM; IC50 (Leishmania infantum [6]): 6 µM; IC50 (Leishmania tropica): 35 µM
37 | O=C1CCC2(CC1)OOC1(O2)C2CC3CC(C2)CC1C3 (centres undefined) | – | – | – | IC50 (Leishmania infantum [7]): 9.35 µM; IC50 (Leishmania infantum [8]): 79.8 µM
38 | CCCC[C@]1(OC)OOC(C)(C)C[C@H]1CNCCCn1ccnc1 (racemic) | > 40 | – | – | –
39 | CCCCCCCCCCCCCCCCOP(=O)([O-])OCC[N+](C)(C)C [MILTEFOSINE] | – | – | – | IC50 (Leishmania donovani [2]): 1.9 to 68.1 µM
40 | CCCCC1(CCCC)C[C@@H](CNCCCn2ccnc2)[C@](C)(OC)OO1 (racemic) | 5.2 | 140 | 35 | IC50 (Leishmania major): 3.2 µM; IC50 (Leishmania donovani [5]): 10.1 µM; IC50 (Leishmania infantum [6]): 2.5 µM; IC50 (Leishmania tropica): 3 µM
41 | COC(=O)C1CC(c2ccccc2)(c2ccccc2)OOC1(C)O (centres undefined) | > 40 | – | – | –
